Where two headings read alike, the source gives them in different places.
Tests used:
[1] = read-out: Human plasma Cmax; total plasma Cmax.tot, median of 9 literature references; cited from earlier work
[2] = plasma free fraction; cited from earlier work
[3] = system: primary human hepatocytes, NIH3T3 fibroblasts, BSEP, CYP3A4; conditions: cited from earlier work
hLiMTs [4] = experiment: Combined HCI (HCS) and cellular ATP 3D assay in hLiMTs; conditions: for minimal effective concentration: Homo sapiens; for DILI prediction hLiMTs (HCS-MEC): Microtissue model structural based (HCI), combined HCS and ATP, MEC < 25 × Cmax.tot cut-off; for hLiMTs <25x Avg Cmax ATP / hLiMTs <100x Avg Cmaxu ATP: ATP endpoint; for hLiMTs <25x Avg Cmax ATP / hLiMTs <25x Avg Cmax HCS / hLiMTs <25x Avg Cmax All: cut-off <25x Avg Cmax; for hLiMTs <100x Avg Cmaxu ATP / hLiMTs <100x Avg Cmaxu HCS / hLiMTs <100x Avg Cmaxu All: cut-off <100x Avg Cmaxu; for hLiMTs <25x Avg Cmax HCS / hLiMTs <100x Avg Cmaxu HCS: HCS endpoints; for hLiMTs <25x Avg Cmax All: all endpoints (ATP and HCS); for hLiMTs Cmax max All / hLiMTs Cmax min All / hLiMTs <10 uM All / hLiMTs <100x Avg Cmaxu All: all endpoints; for hLiMTs Cmax max All: Cmax max used; for hLiMTs Cmax min All: Cmax min used; for hLiMTs <10 uM All: cut-off <10 uM
[5] = Plasma free fraction (fu) and unbound Cmax (Cmax,u); assay type: in vitro ADME, human; conditions: unbound plasma Cmax
Procedure: The prediction of DILI severity was evaluated further using the 3D combined HCI assays using plasma-free fraction. The majority of fu values were obtained from literature, when unavailable in-house prediction was utilised. Unbound plasma Cmax concentrations (Cmax,u) were derived by multiplying total plasma Cmax with the corresponding free fraction (fu) for each compound.

HepaRG spheroids = experiment: Combined HCI (HCS) and cellular ATP 3D assay in HepaRG spheroids; conditions: for HepaRG <25x Avg Cmax ATP / HepaRG <100x Avg Cmaxu ATP: ATP endpoint; for HepaRG <25x Avg Cmax ATP / HepaRG <25x Avg Cmax HCS / HepaRG <25x Avg Cmax All: cut-off <25x Avg Cmax; for HepaRG <100x Avg Cmaxu ATP / HepaRG <100x Avg Cmaxu HCS / HepaRG <100x Avg Cmaxu All: cut-off <100x Avg Cmaxu; for HepaRG <25x Avg Cmax HCS / HepaRG <100x Avg Cmaxu HCS: HCS endpoints; for HepaRG <25x Avg Cmax All: all endpoints (ATP and HCS); for HepaRG Cmax max All / HepaRG Cmax min All / HepaRG <10 uM All / HepaRG <100x Avg Cmaxu All: all endpoints; for HepaRG Cmax max All: Cmax max used; for HepaRG Cmax min All: Cmax min used; for HepaRG <10 uM All: cut-off <10 uM; for minimal effective concentration / AC50: Homo sapiens; for HepaRG <25x Avg Cmax ATP / HepaRG <100x Avg Cmaxu ATP / HepaRG <25x Avg Cmax HCS / HepaRG <100x Avg Cmaxu HCS / HepaRG <25x Avg Cmax All / HepaRG Cmax max All / HepaRG Cmax min All / HepaRG <10 uM All / HepaRG <100x Avg Cmaxu All / minimal effective concentration / AC50: HepaRG; for DILI prediction HepaRG spheroids (HCS-MEC): Microtissue model structural based (HCI), combined HCS and ATP, MEC < 25 × Cmax.tot cut-off
[6] = system: isolated mouse liver mitochondria; conditions: In vitro Assay; ref Porceddu 2012; cited from earlier work
hLiMTs [7] = conditions: cited from earlier work
[8] = in vivo; cited from earlier work
[9] = system: THLE or HepG2 cells, isolated mitochondria, BSEP; conditions: cited from earlier work
[10] = in vivo; cited from earlier work; remark: listed apart in the source
PHH = conditions: cited from earlier work
human hepatocytes = conditions: cited from earlier work
[11] = In vitro Assay, ref Schadt 2015
[12] = In vitro Assay, ref Proctor 2017

| Structure (SMILES) | Cmax [1] | fu [2] | DILI prediction hLiMTs (HCS-MEC) (hLiMTs [4]) | hLiMTs <25x Avg Cmax ATP (hLiMTs [4]) | hLiMTs <100x Avg Cmaxu ATP (hLiMTs [4]) | hLiMTs <25x Avg Cmax HCS (hLiMTs [4]) | hLiMTs <100x Avg Cmaxu HCS (hLiMTs [4]) | hLiMTs <25x Avg Cmax All (hLiMTs [4]) | hLiMTs Cmax max All (hLiMTs [4]) | hLiMTs Cmax min All (hLiMTs [4]) | hLiMTs <10 uM All (hLiMTs [4]) | hLiMTs <100x Avg Cmaxu All (hLiMTs [4]) | Human plasma Cmax,u [5] | HepaRG <25x Avg Cmax ATP (HepaRG spheroids) | HepaRG <100x Avg Cmaxu ATP (HepaRG spheroids) | HepaRG <25x Avg Cmax HCS (HepaRG spheroids) | HepaRG <100x Avg Cmaxu HCS (HepaRG spheroids) | HepaRG <25x Avg Cmax All (HepaRG spheroids) | HepaRG Cmax max All (HepaRG spheroids) | HepaRG Cmax min All (HepaRG spheroids) | other results |
| --- | --- | --- | --- | --- | --- | --- | --- | --- | --- | --- | --- | --- | --- | --- | --- | --- | --- | --- | --- | --- | --- |
| CCOC(=O)CN[C@@H](C(=O)N1CC[C@H]1C(=O)NCc1ccc(/C(N)=N\O)cc1)C1CCCCC1 [ximelagatran] | 380 nM | 0.210 | -VE | -ve | -ve | -ve | -ve | -ve | -ve | -ve | -ve | -ve | 80 nM | -ve | -ve | -ve | -ve | -ve | -ve | -ve | DILI in vitro assay prediction, Schadt (2015) ([3]; BSEP & Metabolism based, ref Schadt et al. 2015): -VE; Cellular toxicity (3T3 cells) [3, 11]: -VE; Combined Assay [3, 11]: -VE; GSH adduct HML [3, 11]: -VE; Hepatocyte cellular toxicity [3, 11]: -VE; MitoTox 3T3 [3, 11]: -VE; TDI CYP3A4 [3, 11]: -VE; hBSEP inhibition [3, 11]: -VE; minimal effective concentration (hLiMTs [4]; read-out: ATP endpoint MEC): 61.8 µM; HepaRG <10 uM All (HepaRG spheroids): -ve; HepaRG <100x Avg Cmaxu All (HepaRG spheroids): -ve; minimal effective concentration (HepaRG spheroids; read-out: ATP endpoint MEC): 149 µM; minimal effective concentration (HepaRG spheroids; read-out: HCS endpoint MEC): 133 µM; DILI prediction HepaRG spheroids (HCS-MEC) (HepaRG spheroids): -VE; in vitro data EC2<=1x Cmax [6]: -VE |
| Nc1cc(N2CCCCC2)nc(N)[n+]1[O-] [minoxidil] | 1200 nM | 0.990 | -VE | -ve | -ve | -ve | +ve (<100x Avg Cmaxu) | -ve | -ve | -ve | -ve | +ve (<100x Avg Cmaxu) | 1183 nM | -ve | -ve | -ve | -ve | -ve | -ve | -ve | hLiMTs ATP <100uM (hLiMTs [7]; [12]): -VE; hLiMTs/100uM, Proctor (2017) (hLiMTs [7]; hLiMTs, ATP, IC50 threshold 100 µM, ref Proctor et al. 2017): -VE; Assigned DILI category [8]: 1; In vivo DILI [8]: -VE; Partition Hybrid HRM Score ≥8, Aleo (2019) [9]: -VE; Rule of Two hybrid HRM Score ≥8, Aleo (2019) [9]: -VE; DILI +VE (5-8), DILI -VE (-4) [10]: -VE; DILI severity category (Chen 2016) [10]: No; DILI severity category (Chen et al. [2016]) [10]: No; minimal effective concentration (hLiMTs [4]; read-out: HCS endpoint MEC): 111 µM; HepaRG <10 uM All (HepaRG spheroids): -ve; HepaRG <100x Avg Cmaxu All (HepaRG spheroids): -ve; DILI prediction HepaRG spheroids (HCS-MEC) (HepaRG spheroids): -VE; PHH/100uM, Proctor (2017) (PHH; 2D PHH, ATP, IC50 threshold 100 µM, ref Proctor et al. 2017): -VE; PHH ATP <100uM (PHH; [12]): -VE |
| CC[C@H]1OC(=O)[C@H](C)[C@@H](O[C@H]2C[C@@](C)(OC)[C@@H](O)[C@H](C)O2)[C@H](C)[C@@H](O[C@@H]2O[C@H](C)C[C@H](N(C)C)[C@H]2O)[C@](C)(O)C[C@@H](C)C(=O)[C@H](C)[C@@H](O)[C@]1(C)O [erythromycin] | 6200 nM | 0.100 | -VE | -ve | -ve | -ve | -ve | -ve | -ve | -ve | -ve | -ve | 620 nM | +ve | -ve | +ve | +ve (<100x Avg Cmaxu) | +ve | +ve | +ve | Structural based (HCI) (human hepatocytes; In vitro Assay, ref Xu 2008): -VE; DILI in vitro assay prediction, Xu (2008) (human hepatocytes; Structural based (HCI), human hepatocytes, ref Xu et al. 2008): -VE; HepaRG <10 uM All (HepaRG spheroids): -ve; HepaRG <100x Avg Cmaxu All (HepaRG spheroids): +ve (<100x Avg Cmaxu); AC50 (HepaRG spheroids; read-out: ATP endpoint AC50): 214 µM; minimal effective concentration (HepaRG spheroids; read-out: ATP endpoint MEC): 128 µM; AC50 (HepaRG spheroids; read-out: HCS endpoint AC50): 294 µM; minimal effective concentration (HepaRG spheroids; read-out: HCS endpoint MEC): 38.1 µM; DILI prediction HepaRG spheroids (HCS-MEC) (HepaRG spheroids): +VE (MEC < 25 × Cmax.tot cut-off); in vitro data EC2<=1x Cmax [6]: +VE |
